Key:
[1] = target: dopaminergic receptors D3 (Homo sapiens, UniProt P35462); experiment: Radioligand binding assay, dopaminergic D3 receptors; conditions: test compound 1×10^−6 M
Outline: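 Scintillation read-out. Specific = total − nonspecific (excess cold ligand). Data as % of control specific binding / % inhibition; IC50 by Hill fit; Ki = IC50/(1+L/KD), KD from Scatchard plot.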

[2] = target: T1, M3 muscarinic receptors (Homo sapiens, UniProt P20309); experiment: Radioligand binding assay, muscarinic M3 receptors; conditions: test compound 1×10^−6 M
T1 construct: expressed in transfected cells; host or cells: CHO cells
Outline: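 Radioligand competition binding, detected by scintillation counting; non-specific binding defined with excess unlabelled ligand. Results given as % inhibition of control specific binding; IC50 from Hill-equation fit of competition curves, Ki via Cheng-Prusoff with radioligand KD from Scatchard plot.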

[3] = target: T2, 5-HT2A receptor (Homo sapiens, UniProt P28223); experiment: Radioligand binding assay, serotoninergic 5-HT2A receptors; conditions: binding assay result in %, Table 5a
T2 construct: purchased PerkinElmer
Outline: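 Competition curves from scintillation-counted specific binding (total minus binding with excess unlabelled ligand) were Hill-fitted to give IC50, converted to Ki via Cheng-Prusoff using Scatchard-derived Kd.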

[4] = tested on: α1 adrenergic receptors (rat cerebral cortex); experiment: Radioligand binding assay, adrenergic α1 receptors; conditions: test compound 1×10^−6 M
Outline: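 Values derive from radioligand displacement, with non-specific binding defined by excess cold ligand and detection by scintillation. Hill-fit IC50s were converted to Ki via Cheng-Prusoff using Scatchard-derived Kd; percent inhibition of control specific binding also reported.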

[5] = target: T3, 5-HT2C receptor (Homo sapiens, UniProt P28335); experiment: Radioligand binding assay, serotoninergic 5-HT2C receptors; conditions: test compound 1×10^−6 M
T3 construct: expressed in transfected cells; host or cells: HEK-293 cells
T3 sequence (P28335 33-458): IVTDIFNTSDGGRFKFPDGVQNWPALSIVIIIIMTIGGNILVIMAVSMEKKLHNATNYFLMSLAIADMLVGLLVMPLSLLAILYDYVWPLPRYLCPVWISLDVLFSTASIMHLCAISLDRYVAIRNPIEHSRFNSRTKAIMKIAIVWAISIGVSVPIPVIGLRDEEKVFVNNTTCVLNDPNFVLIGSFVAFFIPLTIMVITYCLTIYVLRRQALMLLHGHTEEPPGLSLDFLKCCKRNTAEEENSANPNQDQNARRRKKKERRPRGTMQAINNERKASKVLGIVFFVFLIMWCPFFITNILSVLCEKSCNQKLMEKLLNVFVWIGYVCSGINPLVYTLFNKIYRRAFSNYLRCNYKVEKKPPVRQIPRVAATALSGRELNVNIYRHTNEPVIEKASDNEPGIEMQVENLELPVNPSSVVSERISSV

[6] = target: T4, H1 histaminergic receptors (Homo sapiens, UniProt P35367); experiment: Radioligand binding assay, histaminergic H1 receptors; conditions: human recombinant (HEK-293 cells), [3H]pyrilamine 1 nM
T4 construct: expressed in transfected cells; host or cells: HEK-293 cells
Outline: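 Competition binding at human H1 receptors; specific binding taken as total minus non-specific binding in excess unlabelled ligand, scintillation read-out. IC50 from Hill-equation fit of competition curves; Ki by Cheng-Prusoff using radioligand concentration and Kd (from Scatchard plot).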

[7] = tested on: σ receptors; experiment: Radioligand binding assay, σ receptors; conditions: rat cerebral cortex, [3H]DTG 8 nM
From the text: The specific ligand binding to the receptors is defined as the difference between the total binding and the non-specific binding determined in the presence of the excess of unlabelled ligand.
The results are expressed as a percent of control specific binding ((measured specific binding/control specific binding)×100) and as a percent inhibition of control specific binding (100−((measured specific binding/control specific binding)×100)) obtained in the presence of the test compounds. The specific ligand binding to the receptors is defined as the difference between the total binding and the nonspecific binding determined in the presence of an excess of unlabelled ligand. Scintillation counting was the method of detection of ligand binding. The IC50 values (concentration causing a half-maximal inhibition of control specific binding) were determined by non-linear regression analysis of the competition curves generated with mean replicate values using Hill equation curve fitting (Y=D+[(A−D)/(1+(C/C50)nH)], where Y=specific binding, D=minimum specific binding, A=maximum specific binding, C=compound concentration, C50=IC50, and nH=slope factor). […] The inhibition constants (Ki) were calculated using the Cheng Prusoff equation (Ki=IC50/(1+(L/KD)), where L=concentration of radioligand in the assay, and KD=affinity of the radioligand for the receptor). A scatchard plot was used to determine the Kd.

[8] = target: dopaminergic receptors D2 (Homo sapiens, UniProt P14416); experiment: Radioligand binding assay, dopaminergic D2 receptors; conditions: binding assay, test compound 1×10^−6 M
Outline: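 Ki from Cheng–Prusoff conversion of Hill-fitted IC50 values, using the assay radioligand concentration and a Scatchard-determined KD. Specific binding, scintillation-counted, excluded signal remaining under excess unlabelled ligand.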

[9] = target: T5, 5-HT1A receptor (rat hippocampus) (Rattus norvegicus, UniProt P19327); experiment: Radioligand binding assay, serotoninergic 5-HT1A receptors; conditions: binding assay result in %, Table 5a;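 also: test compound at 1 µM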
T5 construct: hippocampus; from tissue; host or cells: rat hippocampus
T5 sequence (P19327 1-422): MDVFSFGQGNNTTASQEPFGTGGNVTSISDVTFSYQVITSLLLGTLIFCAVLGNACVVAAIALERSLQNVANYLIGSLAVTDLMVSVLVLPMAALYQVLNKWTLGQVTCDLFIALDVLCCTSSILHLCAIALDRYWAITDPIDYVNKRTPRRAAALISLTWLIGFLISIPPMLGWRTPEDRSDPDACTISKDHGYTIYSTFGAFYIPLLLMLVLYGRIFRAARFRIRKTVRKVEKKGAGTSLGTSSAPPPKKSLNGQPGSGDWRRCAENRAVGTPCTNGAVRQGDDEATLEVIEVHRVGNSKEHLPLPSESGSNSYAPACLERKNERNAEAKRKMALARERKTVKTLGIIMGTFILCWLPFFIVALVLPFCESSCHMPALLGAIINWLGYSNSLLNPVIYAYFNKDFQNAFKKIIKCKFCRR

T2 sequence (P28223 whole entry): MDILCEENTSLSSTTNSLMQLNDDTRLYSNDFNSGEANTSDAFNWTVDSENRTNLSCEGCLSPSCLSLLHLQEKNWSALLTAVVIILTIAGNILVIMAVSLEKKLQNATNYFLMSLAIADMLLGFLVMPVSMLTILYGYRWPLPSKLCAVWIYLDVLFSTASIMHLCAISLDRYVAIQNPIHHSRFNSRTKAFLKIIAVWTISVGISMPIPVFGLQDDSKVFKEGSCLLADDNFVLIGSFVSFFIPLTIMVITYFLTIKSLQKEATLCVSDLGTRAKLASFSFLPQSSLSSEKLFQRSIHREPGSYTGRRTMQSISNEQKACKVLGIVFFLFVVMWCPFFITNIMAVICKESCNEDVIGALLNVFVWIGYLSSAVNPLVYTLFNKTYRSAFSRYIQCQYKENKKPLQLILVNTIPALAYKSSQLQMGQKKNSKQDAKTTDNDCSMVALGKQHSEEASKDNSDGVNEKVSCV
dopaminergic receptors D3, sequence (P35462 whole entry): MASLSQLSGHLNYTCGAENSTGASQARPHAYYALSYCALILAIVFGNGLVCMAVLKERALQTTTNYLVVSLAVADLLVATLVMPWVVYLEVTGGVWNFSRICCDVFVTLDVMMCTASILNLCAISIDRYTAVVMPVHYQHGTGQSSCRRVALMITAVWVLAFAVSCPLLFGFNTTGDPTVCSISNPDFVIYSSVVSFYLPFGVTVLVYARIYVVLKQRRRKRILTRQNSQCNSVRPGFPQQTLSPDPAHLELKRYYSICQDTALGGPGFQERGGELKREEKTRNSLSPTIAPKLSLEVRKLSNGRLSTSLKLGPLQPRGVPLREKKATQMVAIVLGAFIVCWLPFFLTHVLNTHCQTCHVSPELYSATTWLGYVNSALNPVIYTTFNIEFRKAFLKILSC
T4 sequence (P35367 whole entry): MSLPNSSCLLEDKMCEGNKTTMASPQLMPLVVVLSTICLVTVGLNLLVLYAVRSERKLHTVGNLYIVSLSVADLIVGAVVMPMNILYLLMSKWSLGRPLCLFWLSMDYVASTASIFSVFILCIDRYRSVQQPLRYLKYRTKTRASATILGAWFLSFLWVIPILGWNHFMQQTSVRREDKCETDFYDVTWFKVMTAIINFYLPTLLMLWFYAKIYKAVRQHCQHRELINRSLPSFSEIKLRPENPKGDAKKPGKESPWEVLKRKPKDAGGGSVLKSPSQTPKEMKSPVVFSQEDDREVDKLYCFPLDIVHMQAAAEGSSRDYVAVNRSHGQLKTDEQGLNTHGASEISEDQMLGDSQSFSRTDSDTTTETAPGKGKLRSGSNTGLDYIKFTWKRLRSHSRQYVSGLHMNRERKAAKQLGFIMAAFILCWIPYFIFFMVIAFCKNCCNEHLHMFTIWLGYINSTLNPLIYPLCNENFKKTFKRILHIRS
dopaminergic receptors D2, sequence (P14416 whole entry): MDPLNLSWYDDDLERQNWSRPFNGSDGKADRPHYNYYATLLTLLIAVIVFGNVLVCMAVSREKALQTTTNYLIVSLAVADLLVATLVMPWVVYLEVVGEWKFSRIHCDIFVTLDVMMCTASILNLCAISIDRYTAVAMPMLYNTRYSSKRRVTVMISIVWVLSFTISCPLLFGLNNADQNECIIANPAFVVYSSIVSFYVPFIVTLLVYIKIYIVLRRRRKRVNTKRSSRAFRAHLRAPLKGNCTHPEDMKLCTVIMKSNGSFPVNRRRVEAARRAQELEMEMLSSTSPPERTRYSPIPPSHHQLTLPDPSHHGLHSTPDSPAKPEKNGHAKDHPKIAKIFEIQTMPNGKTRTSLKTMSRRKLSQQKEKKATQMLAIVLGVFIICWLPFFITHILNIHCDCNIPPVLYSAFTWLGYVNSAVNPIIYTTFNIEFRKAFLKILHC
T1 sequence (P20309 whole entry): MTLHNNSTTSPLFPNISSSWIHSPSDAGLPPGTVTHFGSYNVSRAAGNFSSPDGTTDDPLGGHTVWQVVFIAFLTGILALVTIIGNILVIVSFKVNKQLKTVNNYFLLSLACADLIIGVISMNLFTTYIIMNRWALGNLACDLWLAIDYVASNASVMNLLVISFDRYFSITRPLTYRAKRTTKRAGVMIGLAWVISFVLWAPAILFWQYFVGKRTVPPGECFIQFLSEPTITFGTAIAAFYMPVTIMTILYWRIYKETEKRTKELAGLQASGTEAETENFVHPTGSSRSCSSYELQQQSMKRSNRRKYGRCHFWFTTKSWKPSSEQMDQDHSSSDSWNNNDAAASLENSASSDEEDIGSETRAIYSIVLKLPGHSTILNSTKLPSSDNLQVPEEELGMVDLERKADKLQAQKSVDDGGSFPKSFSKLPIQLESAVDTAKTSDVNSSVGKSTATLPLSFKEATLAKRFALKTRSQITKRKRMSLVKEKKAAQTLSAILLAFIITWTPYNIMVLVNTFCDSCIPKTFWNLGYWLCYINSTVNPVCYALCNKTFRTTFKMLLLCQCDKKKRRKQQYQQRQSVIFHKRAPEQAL

Compound: O=S(=O)(NC1CN(CCOc2cccc3[nH]ccc23)C1)c1cccc(Cl)c1 [Compound 47, 3-Chloro-N-[1-[2-(1H-indol-4-yloxy)ethyl]azetidin-3-yl]benzene-sulphonamide]
- inhibition at 1 µM [1]: 97%
- inhibition at 1 µM [2]: -8%
- inhibition at 1 µM [3]: 80%
- α1 [%] [4]: 71%
- inhibition at 1 µM [5]: 33%
- inhibition at 1 µM [6]: -3%
- σ [%] [7]: 44%
- inhibition at 1 µM [8]: 83%
- inhibition at 1 µM [9]: 98%

Compound: O=S(=O)(NCC1CCN(CCCc2noc3cc(F)ccc23)C1)c1ccc2cc(Cl)ccc2c1 (centres unmarked) [Compound 237, 6-Chloro-N-[[1-[3-(6-fluoro-1,2-benzoxazol-3-yl)propyl]pyrrolidin-3-yl]methyl]naphthalene-2-sulphonamide]
- inhibition at 1 µM [1]: 89%
- inhibition at 1 µM [2]: 16%
- inhibition at 1 µM [3]: 97%
- α1 [%] [4]: 88%
- inhibition at 1 µM [5]: 79%
- inhibition at 1 µM [6]: 66%
- σ [%] [7]: 88%
- inhibition at 1 µM [8]: 97%
- inhibition at 1 µM [9]: 45%

Compound: O=S(=O)(NC1CCN(CCCc2c[nH]c3ccc(Cl)cc23)C1)c1cccc(F)c1 (centres unmarked) [Compound 82, N-[1-[3-(5-Chloro-1H-indol-3-yl)propyl]pyrrolidin-3-yl]-3-fluoro-benzene-sulphonamide]
- inhibition at 1 µM [1]: 94%
- inhibition at 1 µM [2]: 9%
- inhibition at 1 µM [3]: 91%
- α1 [%] [4]: 43%
- inhibition at 1 µM [5]: 82%
- inhibition at 1 µM [6]: 61%
- σ [%] [7]: 63%
- inhibition at 1 µM [8]: 90%
- inhibition at 1 µM [9]: 99%

Compound: CC(C)(C)c1ccc(S(=O)(=O)NCC2CN(CCOc3cccc4c3OCCO4)C2)cc1 [Compound 181, 4-tert-Butyl-N-[[1-[2-(2,3-dihydro-1,4-benzodioxin-5-yloxy)ethyl]azetidin-3-yl]methyl]benzenesulphonamide]
- inhibition at 1 µM [1]: 77%
- inhibition at 1 µM [2]: 0%
- inhibition at 1 µM [3]: 89%
- α1 [%] [4]: 50%
- inhibition at 1 µM [5]: 93%
- inhibition at 1 µM [6]: 27%
- σ [%] [7]: 75%
- inhibition at 1 µM [8]: 73%
- inhibition at 1 µM [9]: 98%

Compound: Cn1ccc2cc(S(=O)(=O)NCC3CCN(CCOc4cccc5c4OCCO5)C3)ccc21 (centres unmarked) [Compound 308, N-[[1-[2-(2,3-Dihydro-1,4-benzodioxin-5-yloxy)ethyl]pyrrolidin-3-yl]methyl]-1-methyl-indole-5-sulphonamide]
- inhibition at 1 µM [1]: 43%
- inhibition at 1 µM [2]: 13%
- inhibition at 1 µM [3]: 91%
- α1 [%] [4]: 69%
- inhibition at 1 µM [5]: 61%
- inhibition at 1 µM [6]: 37%
- σ [%] [7]: 91%
- inhibition at 1 µM [8]: 57%
- inhibition at 1 µM [9]: 98%

Compound: O=S(=O)(NC1CCN(CCCc2noc3cc(F)ccc23)C1)c1cccc2ccccc12 (centres unmarked) [Compound 20, N-[1-[3-(6-Fluoro-1,2-benzoxazol-3-yl)propyl]pyrrolidin-3-yl]naphthalene-1-sulphonamide]
- inhibition at 1 µM [1]: 69%
- inhibition at 1 µM [2]: -7%
- inhibition at 1 µM [3]: 100%
- α1 [%] [4]: 86%
- inhibition at 1 µM [5]: 33%
- inhibition at 1 µM [6]: 36%
- σ [%] [7]: 83%
- inhibition at 1 µM [8]: 95%
- inhibition at 1 µM [9]: 67%

Compound: O=S(=O)(NC1CCN(CCCc2noc3cc(F)ccc23)C1)c1csc2ccccc12 (centres unmarked) [Compound 26, N-[1-[3-(6-Fluoro-1,2-benzoxazol-3-yl)propyl]pyrrolidin-3-yl]-benzothiophene-3-sulphonamide]
- inhibition at 1 µM [1]: 81%
- inhibition at 1 µM [2]: 11%
- α1 [%] [4]: 87%
- inhibition at 1 µM [5]: 51%
- inhibition at 1 µM [6]: 44%
- σ [%] [7]: 80%
- inhibition at 1 µM [8]: 98%
- inhibition at 1 µM [9]: 79%

Compound: O=S(=O)(NC1CCN(CCCc2noc3cc(F)ccc23)C1)c1cc2ccccc2o1 (centres unmarked) [Compound 216, N-[1-[3-(6-Fluoro-1,2-benzoxazol-3-yl)propyl]pyrrolidin-3-yl]benzofuran-2-sulphonamide]
- inhibition at 1 µM [1]: 85%
- inhibition at 1 µM [2]: 28%
- α1 [%] [4]: 84%
- inhibition at 1 µM [5]: 62%
- inhibition at 1 µM [6]: 61%
- σ [%] [7]: 88%
- inhibition at 1 µM [8]: 98%
- inhibition at 1 µM [9]: 35%

Compound: Cc1ccc2sc(S(=O)(=O)NC3CCN(CCCc4noc5cc(F)ccc45)C3)cc2c1 (centres unmarked) [Compound 226, N-[1-[3-(6-Fluoro-1,2-benzoxazol-3-yl)propyl]pyrrolidin-3-yl]-5-methylbenzothiophene-2-sulphonamide]
- inhibition at 1 µM [1]: 95%
- inhibition at 1 µM [2]: 8%
- α1 [%] [4]: 73%
- inhibition at 1 µM [5]: 89%
- inhibition at 1 µM [6]: 73%
- σ [%] [7]: 82%
- inhibition at 1 µM [8]: 99%
- inhibition at 1 µM [9]: 43%

Compound: COc1ccc2cc(S(=O)(=O)NC3CCN(CCCc4noc5cc(F)ccc45)C3)ccc2c1 (centres unmarked) [Compound 227, N-[1-[3-(6-Fluoro-1,2-benzoxazol-3-yl)propyl]pyrrolidin-3-yl]-6-methoxy-naphthalene-2-sulphonamide]
- inhibition at 1 µM [1]: 96%
- inhibition at 1 µM [2]: 13%
- α1 [%] [4]: 85%
- inhibition at 1 µM [5]: 82%
- inhibition at 1 µM [6]: 69%
- σ [%] [7]: 59%
- inhibition at 1 µM [8]: 97%
- inhibition at 1 µM [9]: 62%

Compound: Cc1c(S(=O)(=O)NC2CCN(CCCc3noc4cc(F)ccc34)C2)sc2ccc(Cl)cc12 (centres unmarked) [Compound 29, 5-Chloro-N-[1-[3-(6-fluoro-1,2-benzoxazol-3-yl)propyl]pyrrolidin-3-yl]-3-methyl-benzothiophene-2-sulphonamide]
- inhibition at 1 µM [1]: 85%
- inhibition at 1 µM [2]: 30%
- α1 [%] [4]: 18%
- inhibition at 1 µM [5]: 28%
- inhibition at 1 µM [6]: 59%
- σ [%] [7]: 60%
- inhibition at 1 µM [8]: 97%
- inhibition at 1 µM [9]: 70%

Compound: N-[1-[3-(6-Fluoro-1,2-benzoxazol-3-yl)propyl]pyrrolidin-3-yl]-1-methyl-imidazole-4-sulphonamide [Compound 217]
- D3 [%] [1]: 84%
- M3 [%] [2]: 6%
- α1 [%] [4]: 40%
- 5-HT2C [%] [5]: 67%
- H1 [%] [6]: 46%
- σ [%] [7]: 86%
- D2 [%] [8]: 96%
- 5-HT1A [%] [9]: 54%

Compound: O=S(=O)(NC1CCN(CCCc2c[nH]c3ccc(F)cc23)C1)c1cccc2ccccc12 (centres unmarked) [Compound 79, N-[1-[3-(5-Fluoro-1H-indol-3-yl)propyl]pyrrolidin-3-yl]naphthalene-1-sulphonamide]
- inhibition at 1 µM [1]: 97%
- inhibition at 1 µM [2]: -3%
- inhibition at 1 µM [3]: 99%
- α1 [%] [4]: 37%
- inhibition at 1 µM [6]: 72%
- σ [%] [7]: 67%
- inhibition at 1 µM [8]: 95%
- inhibition at 1 µM [9]: 99%

Reference: patent US20140135310A1, “SULPHONAMIDE DERIVATIVES OF ALICYCLIC AMINES FOR THE TREATMENT OF CENTRAL NERVOUS SYSTEM DISEASES” (Adamed Sp. z o.o., priority 2011, published 2014)
